The subject of assay [1] is KMS-12-PE Bcl-2 WT. The experiment in a line: In vitro cytotoxicity CellTiter-Glo 48 h, KMS-12-PE Bcl-2 WT. The settings on record: C50 = concentration needed to reach 50% of the cellular viability. Format: cell-based. In a few lines:
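KMS-12-PE myeloma cells lentivirally transduced with Bcl-2 WT or G101V (TagRFP-sorted), exposed to compound 11-point dose-response for 48 h at 37 °C, 5% CO2. Viability read by CellTiter-Glo ATP luminescence; C50 is the concentration giving 50% cellular viability.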
For orientation: In ATP-based viability assays light output follows the ATP content of the culture.

The target of assay [2] is BCL2 D103Y (Homo sapiens, UniProt P10415, D103Y). In words: TR-FRET competitive binding assay, BCL2 D103Y. The settings on record: Ki determined from IC50, read-out: TR_FRET EKI_Bcl2 D103Y. In a few lines:
(§1)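 Terbium-labelled N-terminal Halo-fusion BCL2 or BCLXL (E. coli), 0.5 nM, competed against fluorescein-labelled PUMA peptide (2 or 20 nM) for 2 h at 23° C in 50 mM Hepes pH 7.5, 150 mM NaCl, 5% DMSO. TR-FRET 520/495 nm ratio gave IC50 by four-parameter fit; Ki derived from IC50.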

Assay [3] relates to BCL2 G101V. In words: TR-FRET competitive binding assay, BCL2 G101V. Further details: species or system human. The settings on record: ratio Ki BCL2 G101V / Ki BCL2 WT. Summed up:
as §1
(In general: TR-FRET usually uses a lanthanide donor and a delayed reading to cut background.)

Assay [4] deals with BCL2 G101V (Homo sapiens, UniProt P10415, G101V). In words: TR-FRET competitive binding assay, BCL2 G101V. The note with it: BCL2 G101V; Ki determined from IC50; read-out: TR_FRET EKI_Bcl2 G101V. Summed up: as §1
Assay [5] deals with BCLXL WT (Homo sapiens (Human), UniProt Q07817). In words: TR-FRET competitive binding assay, BCLXL WT. The settings on record: for Ki: BCLXL WT, Ki determined from IC50, read-out: TR_FRET EKI BclxL; for TR_FRET EKI BCLxL/WT selectivty ratio: ratio Ki BCLxL / Ki BCL2 WT. In a few lines: as §1
The target of assay [6] is BCL2 WT (Homo sapiens (Human), UniProt P10415). The experiment in a line: TR-FRET competitive binding assay, BCL2 WT. The note with it: Ki determined from IC50, read-out: TR_FRET EKI_Bcl2 WT. Summed up:
as §1

Assay [7] concerns KMS-12-PE Bcl-2 G101V. The experiment in a line: In vitro cytotoxicity CellTiter-Glo 48 h, KMS-12-PE Bcl-2 G101V. The format is cell-based. The settings on record: for Ratio (G101V/WT): C50 KMS-12-PE Bcl-2 G101V over C50 KMS-12-PE Bcl-2 WT; for IC50: 48 h, CellTiter-Glo, C50 = concentration needed to reach 50% of the cellular viability. How it is done: KMS-12-PE (ACC 606) were purchased from the Leibniz-Institute DSMZ (Braunschweig, Germany) and were grown at 37° C. in a humidified atmosphere with […] in media recommended by the suppliers. Lentiviral particles containing Bcl-2 wild type (also named “Bcl2 WT”) and Bcl-2 mutated on G101V (also named “Bcl2 G101V”) were cloned into pcLV-CMV-DEST-IRES-TagRFP. Lentiviral particles (1×106) were mixed with Polybrene at 8 µg/ml and transduced by spinoculation for 1 h at 32° C. and incubated overnight. After 8 days, TagRFP positive-cells were sorted by FACS. BCL2 expression was monitored by immunoblotting using anti-Flag and anti-BCL2 antibodies.
Cellular viability was monitored with the cell viability assay (CellTiter-Glo®) on KMS-12-PE WT and G101V cell lines. The CellTiter-Glo® (CTG) Luminescent Cell Viability Assay (from Promega) is a homogeneous method to determine the number of viable cells in culture based on quantitation of the ATP present, which signals the presence of metabolically active cells.
Dose response of compounds are performed with 10 mM stock solutions (DMSO), 11-points curve, in a 384-well compound plate. The assay plate is prepared by stamping 40 nL from compound dilution plate of all different concentrations (e.g. 10 mM to have final […] assay test) into a cell culture microplate, using Echo acoustic liquid handling (Labcyte, Beckman). 40 μl of cell solution is added and cells are incubated with compounds for 48 h at 37° C., 5% CO2. CTG was added to the cells (according to the manufacturer instructions) and luminescence intensity was recorded using the Pherastar plate reader (BMG).
This assay provides in vitro cellular potency of the tested Bcl-2 inhibitors, measuring the C50, defined as the concentration needed to reach 50% of the cellular viability.

By IC50 is commonly meant the midpoint of a concentration-inhibition curve. Low values mean greater potency in that assay, high ones weaker potency in that assay.

Chain of BCLXL WT (Q07817 other isoform, or with tags, fused parts or gaps): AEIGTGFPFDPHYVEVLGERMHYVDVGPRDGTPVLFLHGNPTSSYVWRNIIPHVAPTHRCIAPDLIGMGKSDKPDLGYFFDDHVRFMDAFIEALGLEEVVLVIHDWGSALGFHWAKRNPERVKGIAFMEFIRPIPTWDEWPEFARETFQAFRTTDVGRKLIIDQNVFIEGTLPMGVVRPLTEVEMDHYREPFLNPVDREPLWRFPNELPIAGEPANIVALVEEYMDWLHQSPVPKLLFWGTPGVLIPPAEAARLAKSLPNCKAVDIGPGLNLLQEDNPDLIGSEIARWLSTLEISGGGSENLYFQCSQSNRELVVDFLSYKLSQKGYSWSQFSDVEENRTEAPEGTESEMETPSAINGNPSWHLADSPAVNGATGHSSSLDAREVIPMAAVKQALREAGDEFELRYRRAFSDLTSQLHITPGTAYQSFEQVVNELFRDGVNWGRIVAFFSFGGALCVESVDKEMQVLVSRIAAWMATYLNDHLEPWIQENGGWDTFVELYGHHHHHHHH

On to `Cc1c(N(C(=O)c2cc(-c3cc4c(cc3C(=O)N3Cc5ccccc5C[C@H]3C)CN(C(=O)Cc3ccc(OCCN5CCOC(C)C5)cc3F)CC4)n(C)c2C)c2ccc(O)cc2)cc(C#N)n1C` (single isomer, unassigned) [Example 75, N-(5-cyano-1,2-dimethyl-1H-pyrrol-3-yl)-5-[2-(2-{2-fluoro-4-[2-((2S or R)-2-methylmorpholin-4-yl)ethoxy]phenyl}acetyl)-7-[(3R)-3-methyl-1,2,3,4-tetrahydroisoquinoline-2-carbonyl]-1,2,3,4-tetrahydroisoquinolin-6-yl]-N-(4-hydroxyphenyl)-1,2-dimethyl-1H-pyrrole-3-carboxamide], for which the IC50 in assay [1] (Homo sapiens, KMS-12-PE) amounted to 0.0037 µM; in assay [7] (Homo sapiens, KMS-12-PE) it was 0.0147 µM. For the same compound, the Ki in assay [2] was found to be 0.28 nM; in assay [4] it was 0.5 nM; in assay [5], 1.4 nM; in assay [6], 0.13 nM. Also, the “TR_FRET EKI G101V/WT selectivty ratio” value in assay [3] is 3.7. In addition, in assay [5], the “TR_FRET EKI BCLxL/WT selectivty ratio” value came to 10.8. For the same compound, the “Ratio (G101V/WT)” value in assay [7] came out at 3.93.
Consider `Cc1c(C(=O)N(c2ccc(O)cc2)c2cc(C#N)n(CC3CCOC3)c2C)cc(-c2cc3c(cc2C(=O)N2Cc4ccccc4C[C@H]2C)CN(C(=O)Cc2ccc(OCCN4CCOCC4)cc2F)CC3)n1C` (single isomer, unassigned) [Example 84, N-[5-cyano-2-methyl-1-((3S or R)-tetrahydrofuran-3-ylmethyl)pyrrol-3-yl]-5-[2-[2-[2-fluoro-4-(2-morpholinoethoxy)phenyl]acetyl]-7-[(3R)-3-methyl-3,4-dihydro-1H-isoquinoline-2-carbonyl]-3,4-dihydro-1H-isoquinolin-6-yl]-N-(4-hydroxyphenyl)-1,2-dimethyl-pyrrole-3-carboxamide], for which the IC50 is 0.0073 µM in assay [1] (Homo sapiens, KMS-12-PE) and 0.0353 µM in assay [7] (Homo sapiens, KMS-12-PE). Also, the Ki in assay [2] amounted to 0.43 nM; in assay [4], 1 nM; in assay [5], 1.8 nM; in assay [6] it was 0.16 nM. The “TR_FRET EKI G101V/WT selectivty ratio” value in assay [3] came out at 5.9. The “TR_FRET EKI BCLxL/WT selectivty ratio” value in assay [5] is listed as 11.3. For the same compound, the “Ratio (G101V/WT)” value in assay [7] came to 4.83.
Consider `Cc1c(N(C(=O)c2cc(-c3cc4c(cc3C(=O)N3Cc5ccccc5C[C@H]3CN3CCCCC3)CN(C(=O)Cc3ccc(OCC(C)N5CCOCC5)cc3)CC4)n(C)c2C)c2ccc(O)cc2)cc(C#N)n1C` (single isomer, unassigned) [Example 128, N-(5-cyano-1,2-dimethyl-1H-pyrrol-3-yl)-N-(4-hydroxyphenyl)-1,2-dimethyl-5-[2-(2-{4-[(2R or S)-2-(morpholin-4-yl)propoxy]phenyl}acetyl)-7-[(3S)-3-[(piperidin-1-yl)methyl]-1,2,3,4-tetrahydroisoquinoline-2-carbonyl]-1,2,3,4-tetrahydroisoquinolin-6-yl]-1H-pyrrole-3-carboxamide], for which the IC50 in assay [1] was determined as 0.0103 µM; in assay [7], 0.0613 µM. For the same compound, the Ki worked out at 0.21 nM in assay [2], 0.4 nM in assay [4], 5.4 nM in assay [5] and 0.06 nM in assay [6]. Further, the “TR_FRET EKI G101V/WT selectivty ratio” value in assay [3] is reported as 6.9. Further, the “TR_FRET EKI BCLxL/WT selectivty ratio” value in assay [5] is reported as 93.1. The “Ratio (G101V/WT)” value in assay [7] came to 5.95.
As for `Cc1c(N(C(=O)c2cc(-c3cc4c(cc3C(=O)N3Cc5ccccc5C[C@H]3CN3CCCCC3)CN(C(=O)Cc3ccc(OCC(C)N5CCOCC5)cc3F)CC4)n(C)c2C)c2ccc(O)cc2)cc(C#N)n1C` (single isomer, unassigned) [Example 141, N-(5-cyano-1,2-dimethyl-1H-pyrrol-3-yl)-5-[2-(2-{2-fluoro-4-[(2R or S)-2-(morpholin-4-yl)propoxy]phenyl}acetyl)-7-[(3S)-3-[(piperidin-1-yl)methyl]-1,2,3,4-tetrahydroisoquinoline-2-carbonyl]-1,2,3,4-tetrahydroisoquinolin-6-yl]-N-(4-hydroxyphenyl)-1,2-dimethyl-1H-pyrrole-3-carboxamide], the half-inhibitory concentration (IC50) was found to be 0.0085 µM in assay [1] and 0.019 µM in assay [7]. Moreover, the Ki in assay [2] worked out at 0.2 nM; in assay [4], 0.3 nM; in assay [5], 1.1 nM; in assay [6], 0.06 nM. In addition, the “TR_FRET EKI G101V/WT selectivty ratio” value in assay [3] came to 4.7. The “TR_FRET EKI BCLxL/WT selectivty ratio” value in assay [5] worked out at 17.7. Further, the “Ratio (G101V/WT)” value in assay [7] turned out to be 2.2379.
For `Cc1c(C(=O)N(c2ccc(O)cc2)c2cc(C#N)n(C(F)F)c2C)cc(-c2cc3c(cc2C(=O)N2Cc4ccccc4C[C@H]2CN2CCCCC2)CN(C(=O)Cc2ccc(OCCN4CCOC(C)C4)cc2F)CC3)n1C` (single isomer, unassigned) [Example 162, N-[5-cyano-1-(difluoromethyl)-2-methyl-pyrrol-3-yl]-5-[2-[2-[2-fluoro-4-[2-((2R or S)-2-methylmorpholin-4-yl)ethoxy]phenyl]acetyl]-7-[(3S)-3-(1-piperidylmethyl)-3,4-dihydro-1H-isoquinoline-2-carbonyl]-3,4-dihydro-1H-isoquinolin-6-yl]-N-(4-hydroxyphenyl)-1,2-dimethyl-pyrrole-3-carboxamide], the half-maximal inhibitory concentration (IC50) in assay [1] (Homo sapiens, KMS-12-PE) is 0.0063 µM; in assay [7] (Homo sapiens, KMS-12-PE), 0.0319 µM. In addition, the Ki in assay [2] was determined as 0.3 nM; in assay [4], 0.6 nM; in assay [5], 9.2 nM; in assay [6] it was 0.13 nM. For the same compound, in assay [3], the “TR_FRET EKI G101V/WT selectivty ratio” value amounted to 4.8. The “TR_FRET EKI BCLxL/WT selectivty ratio” value in assay [5] was found to be 70.8. For the same compound, the “Ratio (G101V/WT)” value in assay [7] is given as 5.0958.
As for `Cc1c(N(C(=O)c2cc(-c3cc4c(cc3C(=O)N3Cc5ccccc5C[C@H]3CN3CCCCC3)CN(C(=O)Cc3ccc(OCCC5COCCO5)cc3F)CC4)n(C)c2C)c2ccc(O)cc2)cc(C#N)n1C` (single isomer, unassigned) [Example 174, N-(5-cyano-1,2-dimethyl-pyrrol-3-yl)-5-[2-[2-[4-[2-((2S or R)-1,4-dioxan-2-yl)ethoxy]-2-fluoro-phenyl]acetyl]-7-[(3S)-3-(1-piperidylmethyl)-3,4-dihydro-1H-isoquinoline-2-carbonyl]-3,4-dihydro-1H-isoquinolin-6-yl]-N-(4-hydroxyphenyl)-1,2-dimethyl-pyrrole-3-carboxamide], the IC50 turned out to be 0.0044 µM in assay [1] (Homo sapiens, KMS-12-PE) and 0.0248 µM in assay [7] (Homo sapiens, KMS-12-PE). The Ki in assay [2] turned out to be 0.3 nM; in assay [4], 0.5 nM; in assay [5] it was 2.6 nM; in assay [6], 0.07 nM. In addition, in assay [3], the “TR_FRET EKI G101V/WT selectivty ratio” value is on record as 7.8. Also, the “TR_FRET EKI BCLxL/WT selectivty ratio” value in assay [5] came to 38.8. Moreover, in assay [7], the “Ratio (G101V/WT)” value is 5.6751.
Take `Cc1c(N(C(=O)c2cc(-c3cc4c(cc3C(=O)N3Cc5ccccc5C[C@H]3CN3CCCCC3)CN(C(=O)Cc3ccc(OCCC5COCCO5)cc3F)CC4)n(C)c2C)c2ccc(O)cc2)cc(C#N)n1C` (single isomer, unassigned) [Example 175, N-(5-cyano-1,2-dimethyl-pyrrol-3-yl)-5-[2-[2-[4-[2-((2R or S)-1,4-dioxan-2-yl)ethoxy]-2-fluoro-phenyl]acetyl]-7-[(3S)-3-(1-piperidylmethyl)-3,4-dihydro-1H-isoquinoline-2-carbonyl]-3,4-dihydro-1H-isoquinolin-6-yl]-N-(4-hydroxyphenyl)-1,2-dimethyl-pyrrole-3-carboxamide]: the IC50 in assay [1] amounted to 0.0041 µM; in assay [7], 0.0261 µM. For the same compound, the Ki in assay [2] turned out to be 0.34 nM; in assay [4], 0.5 nM; in assay [5], 3.1 nM; in assay [6], 0.08 nM. The “TR_FRET EKI G101V/WT selectivty ratio” value in assay [3] is recorded as 7.0. The “TR_FRET EKI BCLxL/WT selectivty ratio” value in assay [5] is 40.8. In addition, the “Ratio (G101V/WT)” value in assay [7] was 6.335.

Source of the values: US20250179047A1, “5-[7-(3,4-DIHYDRO-1H-ISOQUINOLINE-2-CARBONYL)-1,2,3,4 TETRAHYDROISOQUINOLIN-6-YL]-1H-PYRROLE-3-CARBOXAMIDE DERIVATIVES, PHARMACEUTICAL COMPOSITIONS CONTAINING THEM AND THEIR USES AS PRO-APOPTOTIC AGENTS” (LES LABORATOIRES SERVIER, priority 2022, published 2025).
